Target: T1, Recombinant human JARID1B/KDM5B (Homo sapiens, UniProt Q9UGL1)
T1 construct: purchased Active Motif 31432; host or cells: Sf9 insect cells
Assay: LANCE Ultra TR-FRET JARID1B (KDM5B) demethylase inhibition assay
Format: biochemical
Conditions: 0.1 uM of test-compounds, FLAG-JARID1B, 500 nM biotinylated H3K4me3 peptide substrate, 30 min at room temperature
Text: FLAG-tagged JARID1B (also known as KDM5B) protein was screened against 49 compounds. For this compound screening, LANCE Ultra time-resolved fluorescence resonance energy transfer (TR-FRET) assay was employed using a europoium (Eu)-labeled antibody that can specifically recognize mono- or dimethylated peptides (H3K4me2/1) and ULight-streptavidin (ULight-SA), a small molecule fluorescent dye. When irradiated at 340 nm, the energy from the Eu donor is transferred to the ULight acceptor dye which, in turn, emits light primarily at 665 nm. The ratio between the intensity of primary emission at 665 nm and that of secondary emission at […] was used to quantify the level of lysine methylation. As JARID1B removes more methyl moieties from tri-methylated substrate peptides (H3K4me3), the ratio increases until the enzyme reaction is terminated. In case, therefore, the compounds disrupt the enzymatic activity completely, the ratio becomes equal to a background value.
Recombinant human JARID1B/KDM5B (accession number NP_006609) of molecular weight 179.9 KDa was expressed in Sf9 insect cells and contains an N-terminal FLAG tag. The enzyme was obtained from Active Motif (Catalog No. 31432). The tri-methylated histone substrate peptide of purity greater than 95% was a synthetic peptide in which the first 21 amino acids correspond to the human histone H3 sequence with three extra amino acids and a biotin motif (GGK-biotin) linked to the C-terminus [sequence: ART-K(Me3)-QTARKSTGGKAPRKQLA-GGK-biotin-OH], (AnaSpec, Fremont, Calif. Catalog. No. ANA-1413). The reference inhibitor compound tranylcypromine (or trans-2-phenylcyclopropylamine hydrochloride, also known as, 2-PCPA) was purchased from Sigma (St. Louis, Mo. Cat. no. P8511). ULight-labeled streptavidin (ULight-SA, Catalog no. TRF0102), Eu-W1024-labeled anti-methyl-Histone H3 Lysine 4 (H3K4me1-2) Antibody (Catalog no. TRF0402), and LANCE detection buffer 10× (Catalog no. CR97-100) were obtained from PerkinElmer (Montreal, Quebec, Canada). The TR-FRET experiments were carried out in white, low-volume 384-wellplates purchased from PerkinElmer (ProxiPlate_-384 Plus, Catalog no. 6008280).
The TR-FRET signal was measured in the presence both of the bio-H3K4me3 peptide and FLAG-JARID1B by detecting any H3K4me2/1 peptide produced in the assay system. Assays using only the bio-H3K4me2 peptide were served as a positive control. Robust enzymatic progressions were observed by using JARID1B at concentrations ranging from 10 to 30 nM. In a typical TR-FRET experiment, JARID1B was pre-incubated with or without 0.1 uM of test-compounds (containing 1% DMSO final) for 5 min. The enzymatic reactions were initiated by the addition of 500 nM biotinylated H3K4me3 peptide substrate plus 500 uM of 2-OG 25 uM Fe(II) and 2 mM ascorbate. The reaction buffer also contained 50 mM Hepes (pH7.5), 0.01% (v/v) Tween 20, and 50 mM NaCl. The reaction mixture was incubated for 30 min at room temperature before reading on an EnVision plate reader (PerkinElmer, Waltham, Mass.).

T1 sequence (Q9UGL1 whole entry): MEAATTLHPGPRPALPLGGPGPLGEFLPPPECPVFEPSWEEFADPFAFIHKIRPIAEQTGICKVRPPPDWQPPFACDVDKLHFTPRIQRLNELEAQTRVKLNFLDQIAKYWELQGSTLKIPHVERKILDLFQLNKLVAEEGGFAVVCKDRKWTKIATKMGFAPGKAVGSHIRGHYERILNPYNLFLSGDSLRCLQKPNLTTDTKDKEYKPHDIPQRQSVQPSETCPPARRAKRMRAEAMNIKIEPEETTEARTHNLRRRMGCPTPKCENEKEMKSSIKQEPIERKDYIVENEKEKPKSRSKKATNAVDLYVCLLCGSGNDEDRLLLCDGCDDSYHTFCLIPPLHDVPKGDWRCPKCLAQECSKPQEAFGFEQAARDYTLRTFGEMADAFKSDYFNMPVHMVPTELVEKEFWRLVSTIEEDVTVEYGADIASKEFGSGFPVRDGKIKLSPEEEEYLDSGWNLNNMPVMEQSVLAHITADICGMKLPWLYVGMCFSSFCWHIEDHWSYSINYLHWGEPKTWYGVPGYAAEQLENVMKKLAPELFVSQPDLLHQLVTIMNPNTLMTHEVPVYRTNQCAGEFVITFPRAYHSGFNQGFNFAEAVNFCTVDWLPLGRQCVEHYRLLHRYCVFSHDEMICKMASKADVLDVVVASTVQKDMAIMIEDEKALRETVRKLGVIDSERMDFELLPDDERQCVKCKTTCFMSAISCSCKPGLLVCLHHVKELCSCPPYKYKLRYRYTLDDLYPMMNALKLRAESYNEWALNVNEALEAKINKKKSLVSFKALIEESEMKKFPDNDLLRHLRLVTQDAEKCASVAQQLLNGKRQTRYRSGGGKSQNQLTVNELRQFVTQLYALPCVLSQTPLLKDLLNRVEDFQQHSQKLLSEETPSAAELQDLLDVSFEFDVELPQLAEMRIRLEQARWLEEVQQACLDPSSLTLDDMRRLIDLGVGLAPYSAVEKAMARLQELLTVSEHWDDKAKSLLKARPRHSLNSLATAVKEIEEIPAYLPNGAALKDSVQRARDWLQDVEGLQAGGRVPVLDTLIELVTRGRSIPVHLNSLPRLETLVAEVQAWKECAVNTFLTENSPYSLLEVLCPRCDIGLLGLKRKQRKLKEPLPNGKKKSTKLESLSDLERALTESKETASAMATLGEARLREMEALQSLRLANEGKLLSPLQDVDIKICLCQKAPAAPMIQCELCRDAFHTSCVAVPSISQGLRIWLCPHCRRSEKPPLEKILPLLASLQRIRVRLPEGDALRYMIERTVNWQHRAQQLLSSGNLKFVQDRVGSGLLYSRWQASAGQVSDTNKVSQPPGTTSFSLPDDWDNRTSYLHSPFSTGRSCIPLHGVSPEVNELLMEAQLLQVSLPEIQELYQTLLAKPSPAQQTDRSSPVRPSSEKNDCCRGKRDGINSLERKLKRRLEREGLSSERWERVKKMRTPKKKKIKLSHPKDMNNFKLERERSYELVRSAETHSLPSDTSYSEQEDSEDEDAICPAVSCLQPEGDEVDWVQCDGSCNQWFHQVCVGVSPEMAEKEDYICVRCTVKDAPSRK

`CN1CCN(Cc2cccc(-c3cnn(-c4nccc5c(=O)[nH]cnc45)c3)c2)CC1` [Compound 6, 8-(4-(3-((4-methylpiperazin-1-yl)methyl)phenyl)-1H-pyrazol-1-yl)pyrido[3,4-d]pyrimidin-4(3H)-one] and `O=c1[nH]cnc2c(-n3cc(-c4cccc(CCCO)c4)cn3)nccc12` [Compound 7, 8-(4-(3-(3-hydroxypropyl)phenyl)-1H-pyrazol-1-yl)pyrido[3,4-d]pyrimidin-4(3H)-one] cannot be ordered by inhibition at 0.1 µM: less than 20% for the first, less than 20% for the second.

`Nc1nn(-c2nccc3c(=O)[nH]cnc23)cc1-c1ccc(N2CCNCC2)nc1` [Compound 14, 8-(3-amino-4-(6-(piperazin-1-yl)pyridin-3-yl)-1H-pyrazol-1-yl)pyrido[3,4-d]pyrimidin-4(3H)-one] and `Nc1nn(-c2nccc3c(=O)[nH]cnc23)cc1-c1ccc(O)cc1` [Compound 25, 8-(3-amino-4-(4-hydroxyphenyl)-1H-pyrazol-1-yl)pyrido[3,4-d]pyrimidin-4(3H)-one] fall in the same range of inhibition at 0.1 µM: 20 to 50% for the first, 20 to 50% for the second.

`COCCNc1nc(-c2nccc3c(=O)[nH]c(COc4ccc(F)c(Cl)c4)nc23)cs1` [Compound 86, 2-((3-chloro-4-fluorophenoxy)methyl)-8-(2-((2-methoxyethyl)amino)thiazol-4-yl)pyrido[3,4-d]pyrimidin-4(3H)-one] and `CCC(O)CNc1nc(-c2nccc3c(=O)[nH]c(COc4ccc(F)c(Cl)c4)nc23)cs1` (centres unmarked) [Compound 95, 2-((3-chloro-4-fluorophenoxy)methyl)-8-(2-((2-hydroxybutyl)amino)thiazol-4-yl)pyrido[3,4-d]pyrimidin-4(3H)-one] cannot be ordered by inhibition at 0.1 µM: no less than 50% for the first, 20 to 50% for the second.

`O=c1[nH]cnc2c(-c3csc(NCCCO)n3)nccc12` [Compound 46, 8-(2-((3-hydroxypropyl)amino)thiazol-4-yl)pyrido[3,4-d]pyrimidin-4(3H)-one] and `NCCNc1nc(-c2nccc3c(=O)[nH]cnc23)cs1` [Compound 44, 8-(2-((2-aminoethyl)amino)thiazol-4-yl)pyrido[3,4-d]pyrimidin-4(3H)-one] fall in the same range of inhibition at 0.1 µM: 20 to 50% for the first, 20 to 50% for the second.

`CC(=O)c1ccc(-c2cn(-c3nccc4c(=O)[nH]cnc34)nc2N)cc1` [Compound 24, 8-(4-(4-acetylphenyl)-3-amino-1H-pyrazol-1-yl)pyrido[3,4-d]pyrimidin-4(3H)-one] and `Nc1nn(-c2nccc3c(=O)[nH]cnc23)cc1-c1cccc(Cl)c1` [Compound 32, 8-(3-amino-4-(3-chlorophenyl)-1H-pyrazol-1-yl)pyrido[3,4-d]pyrimidin-4(3H)-one] cannot be ordered by inhibition at 0.1 µM: no less than 50% for the first, 20 to 50% for the second.

First: O=c1[nH]cnc2c(-c3cnn(CCN4CCOCC4)c3)nccc12 [Compound 65, 8-(1-(2-morpholinoethyl)-1H-pyrazol-4-yl)pyrido[3,4-d]pyrimidin-4(3H)-one]
Second: Cn1cc(-c2cnn(-c3nccc4c(=O)[nH]cnc34)c2)cn1 [Compound 11, 8-(1′-methyl-1H,1′H-[4,4′-bipyrazol]-1-yl)pyrido[3,4-d]pyrimidin-4(3H)-one]
The inhibition at 0.1 µM of the first is higher: 20 to 50% for the first, less than 20% for the second.

Compared with `CCC(O)CNc1nc(-c2nccc3c(=O)[nH]cnc23)cs1` (centres unmarked) [Compound 60, 8-(2-((2-hydroxybutyl)amino)thiazol-4-yl)pyrido[3,4-d]pyrimidin-4(3H)-one], `Cc1nc2c(-c3csc(NCCO)n3)nccc2c(=O)[nH]1` [Compound 137, 8-(2-((2-hydroxyethyl)amino)thiazol-4-yl)-2-methylpyrido [3,4-d]pyrimidin-4(3H)-one] is lower in inhibition at 0.1 µM: 20 to 50% for the first, less than 20% for the second.

`COCCNc1nc(-c2nccc3c(=O)[nH]c(COCc4ccccc4)nc23)cs1` [Compound 146, 2-((benzyloxy)methyl)-8-(2-((2-methoxyethyl)amino)thiazol-4-yl)pyrido[3,4-d]pyrimidin-4(3H)-one] and `O=c1[nH]c(COCc2ccccc2)nc2c(-c3csc(NCCCO)n3)nccc12` [Compound 147, 2-((benzyloxy)methyl)-8-(2-((3-hydroxypropyl)amino)thiazol-4-yl)pyrido[3,4-d]pyrimidin-4(3H)-one] cannot be ordered by inhibition at 0.1 µM: less than 20% for the first, less than 20% for the second.

`O=c1[nH]c(COc2ccc(F)c(Cl)c2)nc2c(-c3csc(NCC4CCN(C5CCCC5)CC4)n3)nccc12` [Compound 98, 2-((3-chloro-4-fluorophenoxy)methyl)-8-(2-(((1-cyclopentylpiperidin-4-yl)methyl)amino)thiazol-4-yl)pyrido[3,4-d]pyrimidin-4(3H)-one] and `CC(C)N1CCC(CNc2nc(-c3nccc4c(=O)[nH]c(COc5ccc(F)c(Cl)c5)nc34)cs2)CC1` [Compound 97, 2-((3-chloro-4-fluorophenoxy)methyl)-8-(2-(((1-isopropylpiperidin-4-yl)methyl)amino)thiazol-4-yl)pyrido[3,4-d]pyrimidin-4(3H)-one] fall in the same range of inhibition at 0.1 µM: 20 to 50% for the first, 20 to 50% for the second.

First: O=c1[nH]c(COc2ccc(F)c(Cl)c2)nc2c(-c3csc(NC4CCN(Cc5ccccc5)C4)n3)nccc12 (centres unmarked) [Compound 107, 8-(2-((1-benzylpyrrolidin-3-yl)amino)thiazol-4-yl)-2-((3-chloro-4-fluorophenoxy)methyl) pyrido[3,4-d]pyrimidin-4(3H)-one]
Second: O=c1[nH]c(COCc2ccccc2)nc2c(-c3csc(NC4CCN(Cc5ccccc5)CC4)n3)nccc12 [Compound 144, 2-((benzyloxy)methyl)-8-(2-((1-benzylpiperidin-4-yl)amino)thiazol-4-yl)pyrido[3,4-d]pyrimidin-4(3H)-one]
The inhibition at 0.1 µM of the first is higher: 20 to 50% for the first, less than 20% for the second.

`O=c1[nH]c(COc2cccc(Cl)c2)nc2c(-c3csc(NCCO)n3)nccc12` [Compound 133, 2-((3-chlorophenoxy)methyl)-8-(2-((2-hydroxyethyl)amino)thiazol-4-yl)pyrido[3,4-d]pyrimidin-4(3H)-one] and `Nc1nc(-c2nccc3c(=O)[nH]c(COc4ccc(F)c(Cl)c4)nc23)cs1` [Compound 104, 8-(2-aminothiazol-4-yl)-2-((3-chloro-4-fluorophenoxy)methyl) pyrido[3,4-d]pyrimidin-4(3H)-one] fall in the same range of inhibition at 0.1 µM: 20 to 50% for the first, 20 to 50% for the second.

First: CN(C)CCNc1nc(-c2nccc3c(=O)[nH]c(Cc4ccccc4)nc23)cs1 [Compound 140, 2-benzyl-8-(2-((2-(dimethylamino)ethyl)amino)thiazol-4-yl)pyrido[3,4-d]pyrimidin-4(3H)-one]
Second: CN1CCN(CCNc2nc(-c3nccc4c(=O)[nH]c(COCc5ccccc5)nc34)cs2)CC1 [Compound 151, 2-((benzyloxy)methyl)-8-(2-((2-(4-methylpiperazin-1-yl)ethyl)amino)thiazol-4-yl)pyrido[3,4-d]pyrimidin-4(3H)-one]
The inhibition at 0.1 µM of the first is higher: 20 to 50% for the first, less than 20% for the second.

Compared with `Nc1nc(-c2nccc3c(=O)[nH]c(COc4ccc(Cc5ccccc5)cc4)nc23)cs1` [Compound 71, 8-(2-aminothiazol-4-yl)-2-((4-benzylphenoxy)methyl) pyrido[3,4-d]pyrimidin-4(3H)-one], `O=c1[nH]c(COCc2ccccc2)nc2c(-c3csc(NCC4CCN(Cc5ccccc5)CC4)n3)nccc12` [Compound 145, 2-((benzyloxy)methyl)-8-(2-(((1-benzylpiperidin-4-yl)methyl)amino)thiazol-4-yl)pyrido[3,4-d]pyrimidin-4(3H)-one] is lower in inhibition at 0.1 µM: no less than 50% for the first, less than 20% for the second.

First: Nc1nn(-c2nccc3c(=O)[nH]cnc23)cc1-c1ccc(CN2CCCC2)cc1 [Compound 34, 8-(3-amino-4-(4-(pyrrolidin-1-ylmethyl)phenyl)-1H-pyrazol-1-yl)pyrido[3,4-d]pyrimidin-4(3H)-one]
Second: O=c1[nH]cnc2c(-n3cc(-c4cnn(Cc5ccccc5)c4)cn3)nccc12 [Compound 13, 8-(1′-benzyl-1H,1′H-[4,4′-bipyrazol]-1-yl)pyrido[3,4-d]pyrimidin-4(3H)-one]
The inhibition at 0.1 µM of the first is higher: 20 to 50% for the first, less than 20% for the second.

Molecule `CCN(CC)CCCC(C)Nc1nc(-c2nccc3c(=O)[nH]c(COc4ccc(F)c(Cl)c4)nc23)cs1` (centres unmarked) [Compound 118, 2-((3-chloro-4-fluorophenoxy)methyl)-8-(2-((5-(diethylamino)pentan-2-yl)amino)thiazol-4-yl)pyrido[3,4-d]pyrimidin-4(3H)-one] has an inhibition at 0.1 µM of 20 to 50%.

From patent US20170057955A1, “Pyridopyrimidinone Compounds for Modulating the Catalytic Activity of Histone Lysine Demethylases (KDMs)” (Dong-A Socio Holdings Co., Ltd., priority 2015, published 2017)
